The text below walks through data of patent US20250115598A1 (Anaxis Pharma Pty Ltd, priority 2021, published 2025).

In one assay the target is human MLKL (full length) (Homo sapiens (Human), UniProt Q8NB16). Description: KINOMEscan binding assay, human MLKL (full length). As to conditions: hMLKL, Table 25; read-out: MLKL (KD). An outline of the steps:
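Tagged kinase + immobilized ligand beads + compound; eluted kinase quantified by qPCR. Kinase source: T7 phage lysate (BL21-derived E. coli, 32 °C) or HEK-293 with DNA tag. 11-pt 3-fold series, 1% DMSO, top 30,000 nM (most). Hill fit, slope −1 → Kd.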

The next assay deals with endogenous MLKL in MDF (Mus musculus (Mouse), UniProt Q9D2Y4). Description: Degradation assay: endogenous MLKL in MDF (western blot). As to conditions: MDF cells, 24 h incubation with compound, MLKL adjusted for loading with GAPDH, normalized to DMSO only control, read-out: Degradation of endogenous MLKL in MDF (DC50 cell-based assay). The procedure: Degradation Assay: Screening Compounds Procedure to Evaluate the Activity of Compounds in Degrading Endogenous MLKL in Human and Mouse Cell
The mouse dermal fibroblast (MDF) cell line was seeded the day before the experiment in a 24-well plate at a cell density of […] per well in a volume of 0.5 mL per well and left to attach overnight. The human monocyte cell line (U937) was seeded on the day of the experiment in a 24-well plate at a cell density of […] per well in a volume of 0.5 mL per well.
The compound was diluted in DMSO with a starting concentration of 10 mM and titrated stepwise with a dilution of 1:5. 0.5 μL of the compound dilution was added to the appropriate well to achieve a final concentration of 10; 2; 0.4; 0.08 and 0.016 μM. A DMSO only well was included as control.
The cells were incubated for 24 h in the presence of the compound at 37° C. and 10% CO2.
After the 24 h incubation period, the medium was removed and cells washed with 0.5 mL PBS. The cells were then lysed directly in 60 μL of 1×SDS gel loading buffer.
The cell lysate was heat-denatured at […] for 10 min. 10 μL of lysate per well were run on 18-well 4-15% Criterion TGX stain free gels (BIO-RAD). The proteins were then transferred onto nitrocellulose membrane with a wet transfer protocol in the Criterion Blotter (BIO-RAD).
Membranes were blocked with 5% skim milk in TBST. Primary antibody against MLKL (clone 3H1, MABC604 Merck) was used at 1:2000 dilution in TBST with 1% BSA and left shaking over night at 4° C. After washes with TBST, the membranes were incubated with goat anti-rat IgG HRP-conjugated antibody (Southern Biotech) in 1% skim milk TBST at 1:10000 dilution for 1 h at room temperature. After TBST washes the bands were imaged on the ChemiDoc MP Imaging System (BIO-RAD) with Immobilion Western Chemiluminescent HRP Substrate Forte (Millipore). The loading control GAPDH was probed for with rabbit anti-GAPDH (CST 14C10) at 1:2000 dilution in 1% BSA TBST over night at 4° C. TBST washes were followed by incubation with goat anti-rabbit IgG HRP-conjugated antibody (Southern Biotech) in 1% skim milk TBST at 1:10000 dilution for 1 h at room temperature followed by TBST washes. The signal was detected as described above.
The band intensity was measured in the ImageLab Software (BIO-RAD) and the MLKL values adjusted for loading with GAPDH. The percentage of degradation was calculated by normalizing the compound treated values to the DMSO only control.
In general terms: In western blotting, separated proteins are transferred to a membrane and probed.

Assay [1] has as its system Immortalised Mouse Dermal Fibroblasts (MDFs). As to the kind of experiment: Cellular assay: inhibition of TSI induced necroptosis, CellTitre-Glo viability. As to conditions: Mus musculus, Fibroblast; MDF, 3 hours TSI cocktail, Table 27; read-out: Inhibition of TSI-induced necroptosis (IC50 cell-based assay) in MDF. An outline of the steps: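 Necroptosis induced for 3 h with TSI: rhTNF 100 ng/ml, Smac mimetic 500 nM, caspase inhibitor IDN-6556 10 μM. Mouse dermal fibroblasts had received compound (36 μM top, ten three-fold steps) 30 min beforehand. ATP-based viability scaled between untreated and TSI-only wells; IC50 taken as 4-parameter curve inflection.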

human MLKL (full length), sequence (Q8NB16 whole entry): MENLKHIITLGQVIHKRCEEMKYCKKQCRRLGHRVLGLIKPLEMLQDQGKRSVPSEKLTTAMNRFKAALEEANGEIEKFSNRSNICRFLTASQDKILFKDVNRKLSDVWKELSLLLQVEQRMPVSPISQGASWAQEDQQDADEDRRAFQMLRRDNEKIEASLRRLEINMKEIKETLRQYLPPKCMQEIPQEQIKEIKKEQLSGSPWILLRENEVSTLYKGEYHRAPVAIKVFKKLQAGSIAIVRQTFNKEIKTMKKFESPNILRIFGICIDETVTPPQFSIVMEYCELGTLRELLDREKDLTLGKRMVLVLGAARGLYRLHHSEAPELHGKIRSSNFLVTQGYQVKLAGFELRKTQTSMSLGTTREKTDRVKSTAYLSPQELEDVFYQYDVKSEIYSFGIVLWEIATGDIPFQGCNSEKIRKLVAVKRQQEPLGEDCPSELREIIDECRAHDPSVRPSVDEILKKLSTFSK
endogenous MLKL in MDF, sequence (Q9D2Y4 whole entry): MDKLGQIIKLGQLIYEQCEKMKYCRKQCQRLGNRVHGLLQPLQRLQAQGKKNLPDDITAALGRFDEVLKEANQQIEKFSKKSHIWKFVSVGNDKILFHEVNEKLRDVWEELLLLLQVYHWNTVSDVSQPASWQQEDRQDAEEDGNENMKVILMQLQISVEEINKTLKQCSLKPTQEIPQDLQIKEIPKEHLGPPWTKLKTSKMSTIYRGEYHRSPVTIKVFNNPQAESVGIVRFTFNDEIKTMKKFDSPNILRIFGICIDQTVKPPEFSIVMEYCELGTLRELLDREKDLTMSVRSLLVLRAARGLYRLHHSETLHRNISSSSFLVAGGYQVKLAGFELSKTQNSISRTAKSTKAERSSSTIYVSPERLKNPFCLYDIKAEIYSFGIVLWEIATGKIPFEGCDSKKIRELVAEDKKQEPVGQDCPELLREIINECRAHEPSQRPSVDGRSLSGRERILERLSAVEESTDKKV

Regarding `Cc1ncsc1-c1ccc(CNC(=O)[C@@H]2C[C@@H](O)CN2C(=O)[C@@H](NC(=O)c2cccc(OCCn3cc(-c4cnc(N)c5c(-c6ccc(NS(=O)(=O)C(F)F)c(O[C@@H](C)c7ccc(F)cc7)c6)nn(C)c45)cn3)c2)C(C)(C)C)cc1` [Compound 1039, (2S,4R)-1-[(2S)-2-({3-[2-(4-{4-amino-3-[4-(difluoromethanesulfonamido)-3-[(1S)-1-(4-fluorophenyl)ethoxy]phenyl]-1-methyl-1H-pyrazolo[4,3-c]pyridin-7-yl}-1H-pyrazol-1-yl)ethoxy]phenyl}formamido)-3,3-dimethylbutanoyl]-4-hydroxy-N-{[4-(4-methyl-1,3-thiazol-5-yl)phenyl]methyl}pyrrolidine-2-carboxamide], at human MLKL (full length), the dissociation constant (Kd) lay within 10 to 1000 nM. Moreover, at endogenous MLKL in MDF, the DC50 was 1000 to 10000 nM.
In the case of `C[C@H](Oc1cc(-c2nn(C)c3c(-c4cnn(C5CCN(C(=O)CCC6CCN(c7cccc8c7C(=O)N(C7CCC(=O)NC7=O)C8=O)CC6)CC5)c4)cnc(N)c23)ccc1NS(=O)(=O)C(F)F)c1ccc(F)cc1` (stereo partly drawn) [Compound 1043, N-[4-(4-amino-7-{1-[1-(3-{1-[2-(2,6-dioxopiperidin-3-yl)-1,3-dioxo-2,3-dihydro-1H-isoindol-4-yl]piperidin-4-yl}propanoyl)piperidin-4-yl]-1H-pyrazol-4-yl}-1-methyl-1H-pyrazolo[4,3-c]pyridin-3-yl)-2-[(1S)-1-(4-fluorophenyl)ethoxy]phenyl]-1,1-difluoromethanesulfonamide], the IC50 in assay [1] is less than 1000 nM. The Kd on human MLKL (full length) lay in the range of 10 to 1000 nM. The 50% degradation concentration (DC50) on endogenous MLKL in MDF was less than 1000 nM.
As for `Cc1ncsc1-c1ccc(CNC(=O)[C@@H]2C[C@@H](O)CN2C(=O)[C@@H](NC(=O)C2(F)CC2)C(C)(C)C)c(OCCCCCCCCn2cc(-c3cnc(N)c4c(-c5ccc(NS(=O)(=O)C(F)F)c(O[C@@H](C)c6ccc(F)cc6)c5)nn(C)c34)cn2)c1` [Compound 1045, (2S,4R)-N-[(2-{[8-(4-{4-amino-3-[4-(difluoromethanesulfonamido)-3-[(1S)-1-(4-fluorophenyl)ethoxy]phenyl]-1-methyl-1H-pyrazolo[4,3-c]pyridin-7-yl}-1H-pyrazol-1-yl)octyl]oxy}-4-(4-methyl-1,3-thiazol-5-yl)phenyl)methyl]-1-[(2S)-2-[(1-fluorocyclopropyl)formamido]-3,3-dimethylbutanoyl]-4-hydroxypyrrolidine-2-carboxamide], the Kd on human MLKL (full length) was in the range of 10 to 1000 nM. Moreover, on endogenous MLKL in MDF, the DC50 is less than 1000 nM.
In the case of `Cc1ncsc1-c1ccc(CNC(=O)[C@@H]2C[C@@H](O)CN2C(=O)[C@@H](NC(=O)COCCOc2ccc(-c3cnc(N)c4c(-c5ccc(NS(=O)(=O)C(F)F)c(O[C@@H](C)c6ccc(F)cc6)c5)nn(C)c34)cc2)C(C)(C)C)cc1` [Compound 1049, (2S,4R)-1-[(2S)-2-{2-[2-(4-{4-amino-3-[4-(difluoromethanesulfonamido)-3-[(1S)-1-(4-fluorophenyl)ethoxy]phenyl]-1-methyl-1H-pyrazolo[4,3-c]pyridin-7-yl}phenoxy)ethoxy]acetamido}-3,3-dimethylbutanoyl]-4-hydroxy-N-{[4-(4-methyl-1,3-thiazol-5-yl)phenyl]methyl}pyrrolidine-2-carboxamide], the IC50 in assay [1] fell in the range of 1000 to 10000 nM. Also, the Kd at human MLKL (full length) lay within 10 to 1000 nM. The DC50 at endogenous MLKL in MDF is less than 1000 nM.
On the same counts, the results for `C[C@H](Oc1cc(-c2nn(C)c3c(-c4cnn(C5CCN(C(=O)CC6CCN(c7cccc8c7C(=O)N(C7CCC(=O)NC7=O)C8=O)C6)CC5)c4)cnc(N)c23)ccc1NS(=O)(=O)C(F)F)c1ccc(F)cc1` (stereo partly drawn) [Compound 1053, N-[4-(4-amino-7-{1-[1-(2-{1-[2-(2,6-dioxopiperidin-3-yl)-1,3-dioxo-2,3-dihydro-1H-isoindol-4-yl]pyrrolidin-3-yl}acetyl)piperidin-4-yl]-1H-pyrazol-4-yl}-1-methyl-1H-pyrazolo [4,3-c]pyridin-3-yl)-2-[(1S)-1-(4-fluorophenyl)ethoxy]phenyl]-1,1-difluoromethanesulfonamide] are less than 1000 nM, 10 to 1000 nM and less than 1000 nM.
Regarding `C[C@H](Oc1cc(-c2nn(C)c3c(-c4cnn(C5CCN(C(=O)[C@H]6C[C@@H](Nc7cccc8c7C(=O)N(C7CCC(=O)NC7=O)C8=O)C6)CC5)c4)cnc(N)c23)ccc1NS(=O)(=O)C(F)F)c1ccc(F)cc1` (stereo partly drawn) [Compound 1055, N-{4-[4-amino-1-methyl-7-(1-{1-[(cis)-3-{[2-(2,6-dioxopiperidin-3-yl)-1,3-dioxo-2,3-dihydro-1H-isoindol-4-yl]amino}cyclobutane-carbonyl]piperidin-4-yl}-1H-pyrazol-4-yl)-1H-pyrazolo[4,3-c]pyridin-3-yl]-2-[(1S)-1-(4-fluorophenyl)ethoxy]phenyl}-1,1-difluoromethanesulfonamide], the half-maximal inhibitory concentration (IC50) in assay [1] was less than 1000 nM. Further, the Kd at human MLKL (full length) fell in the range of 10 to 1000 nM. Also, the DC50 on endogenous MLKL in MDF is less than 1000 nM.
As for `Cn1nc(-c2ccc(NS(=O)(=O)C(F)F)c(F)c2)c2c(N)ncc(-c3cnn(CCCCCCCOc4cccc5c4C(=O)N(C4CCC(=O)NC4=O)C5=O)c3)c21` (centres unmarked) [Compound 1060, N-(4-{4-amino-7-[1-(7-{[2-(2,6-dioxopiperidin-3-yl)-1,3-dioxo-2,3-dihydro-1H-isoindol-4-yl]oxy}heptyl)-1H-pyrazol-4-yl]-1-methyl-1H-pyrazolo[4,3-c]pyridin-3-yl}-2-fluorophenyl)-1,1-difluoromethanesulfonamide], the equilibrium dissociation constant (Kd) on human MLKL (full length) was less than 10 nM. In addition, the DC50 on endogenous MLKL in MDF fell in the range of 1000 to 10000 nM.
In the case of `C[C@H](Oc1cc(-c2nn(C)c3c(-c4cnn(C5CCN(CCn6cc(CCNc7cccc8c7C(=O)N(C7CCC(=O)NC7=O)C8=O)nn6)CC5)c4)cnc(N)c23)ccc1NS(=O)(=O)C(F)F)c1ccc(F)cc1` (some centres unmarked) [Compound 1128, N-(4-{4-amino-7-[1-(1-{2-[4-(2-{[2-(2,6-dioxopiperidin-3-yl)-1,3-dioxo-2,3-dihydro-1H-isoindol-4-yl]amino}ethyl)-1H-1,2,3-triazol-1-yl]ethyl}piperidin-4-yl)-1H-pyrazol-4-yl]-1-methyl-1H-pyrazolo[4,3-c]pyridin-3-yl}-2-[(1 S)-1-(4-fluorophenyl)ethoxy]phenyl)-1,1-difluoromethanesulfonamide], in assay [1], the concentration for half-maximal inhibition (IC50) was less than 1000 nM. Besides, on endogenous MLKL in MDF, the half-maximal degradation concentration (DC50) was less than 1000 nM.
Turning to `C[C@H](Oc1cc(-c2nn(C)c3c(-c4cnn(C5CCN(CCc6cn(CCNc7cccc8c7C(=O)N(C7CCC(=O)NC7=O)C8=O)nn6)CC5)c4)cnc(N)c23)ccc1NS(=O)(=O)C(F)F)c1ccc(F)cc1` (some centres unmarked) [Compound 1135, N-(4-{4-amino-7-[1-(1-{2-[1-(2-{[2-(2,6-dioxopiperidin-3-yl)-1,3-dioxo-2,3-dihydro-1H-isoindol-4-yl]amino}ethyl)-1H-1,2,3-triazol-4-yl]ethyl}piperidin-4-yl)-1H-pyrazol-4-yl]-1-methyl-1H-pyrazolo[4,3-c]pyridin-3-yl}-2-[(1 S)-1-(4-fluorophenyl)ethoxy]phenyl)-1,1-difluoromethanesulfonamide], at endogenous MLKL in MDF, the DC50 lay within 1000 to 10000 nM.
Regarding `C[C@H](Oc1cc(-c2nn(C)c3c(-c4cnn(C5CCN(C(=O)Cc6cccc7c6C(=O)N(C6CCC(=O)NC6=O)C7=O)CC5)c4)cnc(N)c23)ccc1NS(=O)(=O)C(F)F)c1ccc(F)cc1` (stereo partly drawn) [Compound 1137, N-(4-{4-amino-7-[1-(1-{2-[2-(2,6-dioxopiperidin-3-yl)-1,3-dioxo-2,3-dihydro-1H-isoindol-4-yl]acetyl}piperidin-4-yl)-1H-pyrazol-4-yl]-1-methyl-1H-pyrazolo[4,3-c]pyridin-3-yl}-2-[(1S)-1-(fluorophenyl)ethoxy]phenyl)-1,1-difluoromethanesulfonamide], in assay [1], the IC50 was in the range of 1000 to 10000 nM. For the same compound, the DC50 on endogenous MLKL in MDF is less than 1000 nM.

Broadly, the Kd is the free concentration of one partner at which half of the binding sites on the other are occupied at equilibrium, for simple one-to-one binding. By DC50 is commonly meant the concentration at which degradation of the target reaches its halfway point. As usually defined, the IC50 is the concentration needed to halve the response being measured.
